Data: article PMC7481701 (Royal Society Open Science, 2020)
pIC50: −log10 of the molar value.

What was measured:
[1] = molecular target: T1, ChTL activity of the purified human 20S proteasome (Homo sapiens, UniProt P28074); assay: Purified 20S proteasome activity assay, ChTL activity (Suc-LLVY-AMC); assay type: biochemical; settings: for inhibitory activity against the 20S proteasome (in words): ChTL activity, figure 2b
T1 construct: The human erythrocyte 20S proteasome was obtained from Boston Biochem; purchased Boston Biochem; host or cells: human erythrocytes
Method: For the proteasome inhibition assays, the peptide-7-amino-4-methylcoumarin (AMC) substrates (25 µM Suc-LLVY-AMC) and inhibitors were added to assay solutions. The assay buffer had the following composition: 25 mM HEPES, 0.5 mM EDTA, 0.03% SDS (pH 8.0). Human erythrocyte 20S proteasome (100 ng) was added to the assay buffer containing substrates and inhibitors at a final volume of 100 µl. After incubation at 37°C for 1 h, the fluorescence emission spectrum at 450 nm (λex, 365 nm) was measured by using a fluorescence microplate reader. The inhibition against PGPH activity of the 20S proteasome was determined as described above except that Z-LLE-AMC was used as the substrate. For the assay of inhibition against the trypsin-like activity of complex 2, the SDS was omitted from the assay buffer and Boc-LRR-AMC was used as the substrate. The assay of inhibition against the trypsin-like activity of complexes 1 and 3 was carried out by the Screening Committee of Anticancer Drugs (Cancer Chemotherapy Center, Japanese Foundation for Cancer Research).
[picture] For the proteasome inhibition assays, the peptide-AMC substrates (25 µM Suc-LLVY-AMC) and inhibitors were added to assay solutions. The assay buffer had the following composition: 25 mM HEPES, 0.5 mM EDTA, 0.03% SDS (pH 8.0). Human erythrocyte 20S proteasome (100 ng) was added to the assay buffer containing substrates and inhibitors at a final volume of 100 µL. After incubation at 37°C for 1 h, the fluorescence emission spectrum at 450 nm (λex, 365 nm) was measured by using a fluorescence microplate reader.

[2] = molecular target: T2, ChTL activity of the 20S proteasome from cell lysates (colon26) (Mus musculus, UniProt O55234); assay: Inhibition against chymotrypsin-like activity in whole-cell lysates; assay type: biochemical; settings: whole-cell lysate, figure S3
T2 construct: endogenous in cells; host or cells: colon26 whole-cell lysate
Method: Cultures of colon26 were grown at 37°C in RPMI1640 supplemented with 10% fetal bovine serum. Whole-cell lysates were prepared according to the method in the literature.
(§1) For the determination of inhibitory activity in whole-cell lysates, peptide-AMC substrates (50 µM Suc-LLVY-AMC), inhibitors and the whole-cell lysate (15 µg) were added to the assay solutions. The following assay buffer was used: 25 mM HEPES, 0.5 mM EDTA, 0.03% SDS (pH 8.0). After incubation at 37°C for 4 h, the fluorescence emission was measured at 450 nm (λex = 365 nm) by using a fluorescence microplate reader.
as §1, with “the whole cell lysate,” for “whole-cell lysates,”, “inhibitors,” for “inhibitors”, “whole cell” for “whole-cell”, “37 °C” for “37°C”

[3] = purified 20S proteasome, figure S2

Row | Compound | inhibitory activity against the 20S proteasome (in words) [1, 3] | remaining activity at 10 µM ([1]; at 10 µM, purified 20S proteasome, figure S2, read-out: residual activity of ChTL) [%] | pIC50 ([1]; purified human erythrocyte 20S proteasome 100 ng, 25 µM Suc-LLVY-AMC, 37°C 1 h, mean ± s.d. (n = 3)) | inhibition in the cell-free system (in words) [2]
1 | NCCN.[Cl-].[Cl-].[Pt+2].c1ccncc1.c1ccncc1 [Pt(py)2(ethylenediamine), (ethylenediamine)bispyridine platinum(II) chloride, reference compound] | no inhibitory activity |  |  | 
2 | NCCNCc1c2ccccc2cc2ccccc12 [N-9-anthracenylmethyl-1,2-ethanediamine, reference compound] | weak inhibitory activity | 43 | ~5.00 | no inhibition
